Measurements published in patent US7572606B1 (Nereus Pharmaceuticals, Inc., priority 2005, dated 2009).
“Also recorded” adds a separate entry of the source. Read-outs that look alike come from different tables or passages of the source.

How the values were obtained:
[1] = molecular target: T1, chymotrypsin-like activity of rabbit muscle 20S proteasome (Oryctolagus cuniculus, UniProt G1T4Q9); assay: In vitro inhibition of 20S proteasome, suc-LLVY-AMC
T1 sequence (G1T4Q9 1-263): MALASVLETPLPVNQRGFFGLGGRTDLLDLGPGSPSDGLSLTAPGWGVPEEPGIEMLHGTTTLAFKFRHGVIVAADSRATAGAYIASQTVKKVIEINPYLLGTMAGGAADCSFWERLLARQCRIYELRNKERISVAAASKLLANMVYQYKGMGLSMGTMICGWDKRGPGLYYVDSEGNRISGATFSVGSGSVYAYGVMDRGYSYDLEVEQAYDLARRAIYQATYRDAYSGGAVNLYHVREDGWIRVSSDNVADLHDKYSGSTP

[2] = molecular target: caspase-like (PGPH) activity of rabbit muscle 20S proteasome (Oryctolagus cuniculus, UniProt A0A5F9DQW2); assay: In vitro inhibition of 20S proteasome, Z-LLE-AMC; details: read-out: EC50 Caspase-like (PGPH); purified rabbit 20S proteasome, Z-LLE-AMC
Sequence of caspase-like (PGPH) activity of rabbit muscle 20S proteasome (A0A5F9DQW2 1-212): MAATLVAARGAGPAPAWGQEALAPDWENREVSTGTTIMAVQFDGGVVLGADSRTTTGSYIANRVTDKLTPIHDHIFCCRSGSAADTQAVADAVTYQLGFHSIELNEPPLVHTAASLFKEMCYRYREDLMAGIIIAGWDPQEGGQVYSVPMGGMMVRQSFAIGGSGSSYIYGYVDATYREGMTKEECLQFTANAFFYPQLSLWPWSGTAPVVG

[3] = test system: DU 145; assay: Cell growth inhibition, resazurin, 48 h; assay type: cell-based, human
[4] = test system: UO-11; assay: NCI 60 cell line screen, sulforhodamine B, 48 h; assay type: cell-based, human
Description: (§1) A detailed description of the screening procedure can be found at hypertext transfer protocol (http://) “dtp.nci.nih.gov/branches/btb/ivclsp.html.”
(§2) In brief, each of the 60 human tumor cell lines were grown in RPMI 1640 medium, supplemented with 5% fetal bovine serum and 2 mM L-glutamine. Cells were plated at their appropriate density in 96-well microtiter plates and incubated at 37° C., 5% CO2, 95% air and 100% relative humidity. […] Cells were incubated for an additional 48 hours and a sulforhodamine B protein assay was used to estimate cell viability or growth.

[5] = test system: HCI-H23; assay: NCI 60 cell line screen, sulforhodamine B, 48 h; assay type: cell-based, human; details: HCI-H23, Non-Small Cell Lung Cancer
Description: as §1, §2

[6] = test system: MDA-MB-231/ATCC; assay: NCI 60 cell line screen, sulforhodamine B, 48 h; assay type: cell-based, human; details: Breast Cancer
Description: as §1, §2

[7] = test system: SK-OV-3; assay: NCI 60 cell line screen, sulforhodamine B, 48 h; assay type: cell-based, human; details: SK-OV-3, Ovarian Cancer
Description: as §1, §2

[8] = test system: A549/ATCC; assay: NCI 60 cell line screen, sulforhodamine B, 48 h; assay type: cell-based, human; details: Non-Small Cell Lung Cancer
Description: as §1, §2

[9] = test system: HCT-116; assay: NCI 60 cell line screen, sulforhodamine B, 48 h; assay type: cell-based, human; details: HCT-116, Colon Cancer
Description: as §1, §2

[10] = test system: T86-0; assay: NCI 60 cell line screen, sulforhodamine B, 48 h; assay type: cell-based, human
Description: as §1, §2

[11] = test system: B16-F10; assay: Cell growth inhibition, resazurin, 48 h; assay type: cell-based, mouse; details: B16-F10, 48 h drug exposure
Description: RPMI 8226 (CCL-155), HT-29 (HTB-38), and B16-F10 (CRL-6475) cells were purchased from ATCC. RPMI 8226 cells were maintained in RPMI 1640 media supplemented with 10% (v/v) FBS, 2 mM L-glutamine, 1 mM sodium pyruvate and Penicillin/Streptomycin at 100 IU/ml and 100 μg/ml, respectively. HT-29 cells were maintained in McCoys 5A supplemented with 10% (v/v) FBS, 2 mM L-glutamine, 1 mM sodium pyruvate, 1% (v/v) non-essential amino acids, 10 mM HEPES and Penicillin/Streptomycin at 100 IU/ml and 100 μg/ml, respectively. B16-F10 cells were maintained in DMEM supplemented with 10% (v/v) FBS, 2 mM L-glutamine, 10 mM HEPES and Penicillin/Streptomycin at 100 IU/ml and 100 μg/ml, respectively.
RPMI 8226 cells were seeded at 2×10^4 cells/well in 90 μl RPMI media containing 10% (v/v) FBS or 1% (v/v) FBS into 96 well black-walled, clear-bottom tissue culture plates. […] Formulae II-16, II-17 and Formula II-18 were serially diluted in media containing 1% or 10% FBS and added in triplicate to the test wells. […] The final concentration of Formula II-18 ranged from 2 μM to 630 pM.

[12] = test system: HEK293; assay: Cell growth inhibition, resazurin, 48 h; assay type: cell-based; details: Homo sapiens; HEK293, 48 h drug exposure
[13] = test system: NF-κB/Luc 293 cells; assay: Viability of reporter cells, resazurin, 24 hr; assay type: cell-based, human; details: at the EC50 concentration of the luciferase assay
[14] = test system: CCD-27sk; assay: Cytotoxic activity, 48 h, normal fibroblasts; assay type: cell-based; details: CCD-27sk normal human fibroblasts
[15] = test system: RAW264.7 cells; details: 12 nM, compound alone
[16] = test system: 60 human tumor cell lines; assay: NCI screening panel, values over all cell lines; assay type: cell-based
[17] = test system: IκBα in HEK293 cells and NF-κB/Luc 293 reporter clone; assay: Western blot of phosphorylated and total IκBα; assay type: cell-based, human; details: 50 and 500 nM, 1 hour pretreatment, TNF-α 30 minutes
Description: Endogenous protein levels were assessed in both HEK293 cells and the NF-κB/Luc 293 reporter clone.
Antibodies against total and phosphorylated forms of IκBα were used to determine the endogenous level of each protein and anti-Tubulin antibody was used to confirm equal loading of protein.

[18] = test system: PARP and Pro-Caspase 3 in RPMI 8226 cells; assay: PARP and Pro-Caspase 3 cleavage, western blot; assay type: cell-based, human; details: 100 nM for 0, 8 or 24 hours; varying concentrations for 8 hours
Description: Total protein lysates were made and 20 μg of the lysates were then resolved under reducing/denaturing conditions and blotted onto nitrocellulose. The blots were then probed with anti-PARP or anti-caspase 3 antibodies followed by stripping and reprobing with an anti-actin antibody.
25 μg of the lysates were then resolved under reducing/denaturing conditions and blotted onto nitrocellulose. The blots were then probed with anti-PARP or anti-caspase 3 antibodies followed by stripping and reprobing with an anti-actin antibody.

[19] = Homo sapiens, 60 cell, read-out: Log10 LC50 (converted)
[20] = mean graph midpoint over all cell lines

## C[C@H]1C(=O)N[C@@]2([C@@H](O)[C@@H]3C=CCCC3)C(=O)O[C@@]12C [Formula II-20]
[1]
  EC50: 2 to 11 nM
[1]; read-out: EC50 Chymotrypsin-like, purified rabbit 20S proteasome, suc-LLVY-AMC
  EC50: 7.7 ± 3 nM
[2]
  EC50: 1420 nM

## C[C@@]12OC(=O)[C@]1([C@@H](O)[C@@H]1C=CCCC1)NC(=O)[C@@H]2CCCl [Formula II-16, Salinosporamide A]
[3]; DU 145
  % cytotoxicity: 75 ± 4%
[3]; Homo sapiens, DU 145, 48 h drug exposure
  EC50: 37 ± 10 nM
[4]; [19]
  CC50: 25700 nM
[4]; UO-11, Renal Cancer
  Log10 G150: <-8.00 Molar
  Log10 TGI: -5.83 Molar
[5]
  Log10 G150: <-8.00 Molar
  Log10 TGI: -7.85 Molar
[6]
  Log10 G150: <-8.00 Molar
  Log10 TGI: <-8.00 Molar
[7]
  Log10 G150: <-8.00 Molar
  Log10 TGI: <-8.00 Molar
[8]
  Log10 G150: <-8.00 Molar
  Log10 TGI: -4.70 Molar
[9]
  Log10 G150: <-8.00 Molar
  Log10 TGI: -7.14 Molar
[10]; [19]
  CC50: > 100000 nM
[10]; T86-0, Renal Cancer
  Log10 G150: <-8.00 Molar
  Log10 TGI: -5.37 Molar
[11]
  EC50: 47 ± 20 nM
[11]; Mus musculus, B16-F10, 48 h
  EC50: 33 nM
[12]
  EC50: 47 nM
[13]
  cell viability: did not affect cell viability
[14]
  EC50: 196 nM
[15]
  viability: 96%
[16]; Homo sapiens, read-out: mean GI50 value
  GI50: < 10 nM
[16]; log units
  Deka Log10 G150: 0.00
  Deka Log10 TGI: 1.21
  Range Log10 G150: 0.00
  Range Log10 TGI: 4.00
[16]; [20]
  MG_MID Log10 G150: -8.00 Molar
  MG_MID Log10 TGI: -6.79 Molar
[17]
  total IκBα and phospho-IκBα level: reduced the degradation of total IκBα but also retained the phospho-IκBα level
[18]
  cleavage of PARP and Pro-Caspase 3: cleavage of PARP and Pro-caspase 3 in a time-dependent manner; also recorded: dose-dependent cleavage of both PARP and Pro-Caspase 3
